Reference: PubChem BioAssay (NCI)
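Method: 48-hour compound exposure of cells in 96-well plates, five concentrations, linear interpolation of endpoints. GI50 = concentration required for 50% inhibition of growth. TGI is the concentration that stops growth completely.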

Tests used:
Assay in all cases: NCI tumour cell line growth inhibition, 48 h
[1] = test system: 786-0 renal
[2] = test system: A498 renal
[3] = test system: A549 NSCLC
[4] = test system: ACHN renal
[5] = test system: BT-549 breast
[6] = test system: CAKI-1 renal
[7] = test system: CCRF-CEM leukemia
[8] = test system: COLO 205 colon
[9] = test system: DU-145 prostate
[10] = test system: EKVX NSCLC
[11] = test system: HCC-2998 colon
[12] = test system: HCT-116 colon
[13] = test system: HCT-15 colon
[14] = test system: HL-60(TB) leukemia
[15] = test system: HOP-92 NSCLC
[16] = test system: HS 578T breast
[17] = test system: HT29 colon
[18] = test system: IGROV1 ovarian
[19] = test system: K-562 leukemia
[20] = test system: KM12 colon
[21] = test system: LOX IMVI melanoma
[22] = test system: M14 melanoma
[23] = test system: MALME-3M melanoma
[24] = test system: MCF7 breast
[25] = test system: MDA-MB-231 breast
[26] = test system: MDA-MB-435
[27] = test system: MOLT-4 leukemia
[28] = test system: NCI-H226 lung
[29] = test system: NCI-H23 lung
[30] = test system: NCI-H460 lung
[31] = test system: NCI-H522 lung
[32] = test system: NCI/ADR-RES ovarian
[33] = test system: OVCAR-3 ovarian
[34] = test system: OVCAR-4 ovarian
[35] = test system: OVCAR-5 ovarian
[36] = test system: OVCAR-8 ovarian
[37] = test system: PC-3 prostate
[38] = test system: RPMI-8226 leukemia
[39] = test system: RXF 393 renal
[40] = test system: SF-268 CNS
[41] = test system: SF-295 CNS
[42] = test system: SF-539 CNS
[43] = test system: SK-MEL-2 melanoma
[44] = test system: SK-MEL-28 melanoma
[45] = test system: SK-MEL-5 melanoma
[46] = test system: SK-OV-3 ovarian
[47] = test system: SN12C renal
[48] = test system: SNB-19 CNS
[49] = test system: SNB-75 CNS
[50] = test system: SR leukemia
[51] = test system: SW-620 colon
[52] = test system: T-47D breast
[53] = test system: TK-10 renal
[54] = test system: U251 CNS
[55] = test system: UACC-257 melanoma
[56] = test system: UACC-62 melanoma
[57] = test system: UO-31 renal

SMILES: O=C([O][Hg][CH2]C1OCCOC1[CH2][Hg][O]C(=O)c1ccccc1)c1ccccc1 (stereo not drawn)
- GI50 [1]: 12.9 µM
- TGI [1]: 25.5 µM
- GI50 [2]: 20.3 µM
- TGI [2]: 34.8 µM
- GI50 [3]: 16.7 µM
- TGI [3]: 32.8 µM
- GI50 [4]: 1.95 µM
- TGI [4]: 3.4 µM
- GI50 [5]: 8.22 µM
- TGI [5]: 20.4 µM
- GI50 [6]: 1.74 µM
- TGI [6]: 3.12 µM
- GI50 [7]: 1.66 µM
- TGI [7]: > 23.4 µM
- GI50 [8]: 1.82 µM
- TGI [8]: 3.27 µM
- GI50 [9]: 16.1 µM
- TGI [9]: 29.6 µM
- GI50 [10]: 18.3 µM
- TGI [10]: 35.5 µM
- GI50 [11]: 17.1 µM
- TGI [11]: 30.8 µM
- GI50 [12]: 4.21 µM
- TGI [12]: 8.37 µM
- GI50 [13]: 8.95 µM
- TGI [13]: 24.9 µM
- GI50 [14]: 2.67 µM
- TGI [14]: 7.41 µM
- GI50 [15]: 37.6 µM
- TGI [15]: 59.4 µM
- GI50 [16]: 16.1 µM
- TGI [16]: 43.9 µM
- GI50 [17]: 5.77 µM
- TGI [17]: 10.6 µM
- GI50 [18]: 10.1 µM
- TGI [18]: 26.9 µM
- GI50 [19]: 1.83 µM
- TGI [19]: 5.46 µM
- GI50 [20]: 16.3 µM
- TGI [20]: 30.1 µM
- GI50 [21]: 3.66 µM
- TGI [21]: 7.56 µM
- GI50 [22]: 5.2 µM
- TGI [22]: 9.52 µM
- GI50 [23]: 2.18 µM
- TGI [23]: 3.88 µM
- GI50 [24]: 1.97 µM
- TGI [24]: 24.4 µM
- GI50 [25]: 16.3 µM
- TGI [25]: 31.7 µM
- GI50 [26]: 15.9 µM
- TGI [26]: 29.3 µM
- GI50 [27]: 2.13 µM
- TGI [27]: 5.37 µM
- GI50 [28]: 22.5 µM
- TGI [28]: 47.3 µM
- GI50 [29]: 8.21 µM
- TGI [29]: 21.3 µM
- GI50 [30]: 19.1 µM
- TGI [30]: 36.2 µM
- GI50 [31]: 0.0642 µM
- TGI [31]: 0.23 µM
- GI50 [32]: 18.7 µM
- TGI [32]: 40.7 µM
- GI50 [33]: 2.16 µM
- TGI [33]: 3.8 µM
- GI50 [34]: 6.07 µM
- TGI [34]: 12.7 µM
- GI50 [35]: 22.3 µM
- TGI [35]: 36.7 µM
- GI50 [36]: 14.9 µM
- TGI [36]: 44 µM
- GI50 [37]: 6.52 µM
- TGI [37]: 14.6 µM
- GI50 [38]: 7.5 µM
- TGI [38]: > 22.6 µM
- GI50 [39]: 2.08 µM
- TGI [39]: 4.06 µM
- GI50 [40]: 17.2 µM
- TGI [40]: 30.9 µM
- GI50 [41]: 17.6 µM
- TGI [41]: 32.7 µM
- GI50 [42]: 13.3 µM
- TGI [42]: 29.7 µM
- GI50 [43]: 5.05 µM
- GI50 [44]: 5.13 µM
- TGI [44]: 16.8 µM
- GI50 [45]: 7.58 µM
- TGI [45]: 22.8 µM
- GI50 [46]: 19.4 µM
- TGI [46]: 34.1 µM
- GI50 [47]: 13.2 µM
- TGI [47]: 27.9 µM
- GI50 [48]: 16.5 µM
- TGI [48]: 30.8 µM
- GI50 [49]: 16 µM
- TGI [49]: 29.5 µM
- GI50 [50]: 2.22 µM
- TGI [50]: 7.21 µM
- GI50 [51]: 1.54 µM
- TGI [51]: 3 µM
- GI50 [52]: 1.82 µM
- TGI [52]: 3.59 µM
- GI50 [53]: 1.91 µM
- TGI [53]: 3.35 µM
- GI50 [54]: 15.1 µM
- TGI [54]: 28.4 µM
- GI50 [55]: 1.89 µM
- TGI [55]: 3.4 µM
- GI50 [56]: 16.5 µM
- TGI [56]: 30.3 µM
- GI50 [57]: 1.79 µM
- TGI [57]: 3.27 µM
